Where two headings read alike, the source gives them in different places.
Columns and labels:
CYP2E1 [1] = biological target: T1, CYP2E1 (Homo sapiens, UniProt P05181); test: Chlorzoxazone hydroxylation inhibition (6-OH-CZX by LC/MS/MS); settings: human, microsomes, pH 7.4
[2] = biological target: human liver microsomal cytochrome P450 2E1 (CYP2E1) (Homo sapiens, UniProt P05181); test: as above
CYP2E1 [3] = biological target: T1, CYP2E1; test: in vitro; settings: for inhibition at 40 min, 33 µM: pH 7.4; for inhibition at 40 min, 16.5 µM / inhibition at 40 min, 66 µM: pH 7.4, Inhibition of CYP 2E1 (%); for inhibition at 40 min, 16.5 µM: tested concentration 16.5 μM; for inhibition at 40 min, 66 µM: tested concentration 66 μM
[4] = biological target: cDNA expressed human cytochrome P450 2E1 (CYP2E1) (Homo sapiens, UniProt P05181)
Sequence of cDNA expressed human cytochrome P450 2E1 (CYP2E1) (P05181 whole entry): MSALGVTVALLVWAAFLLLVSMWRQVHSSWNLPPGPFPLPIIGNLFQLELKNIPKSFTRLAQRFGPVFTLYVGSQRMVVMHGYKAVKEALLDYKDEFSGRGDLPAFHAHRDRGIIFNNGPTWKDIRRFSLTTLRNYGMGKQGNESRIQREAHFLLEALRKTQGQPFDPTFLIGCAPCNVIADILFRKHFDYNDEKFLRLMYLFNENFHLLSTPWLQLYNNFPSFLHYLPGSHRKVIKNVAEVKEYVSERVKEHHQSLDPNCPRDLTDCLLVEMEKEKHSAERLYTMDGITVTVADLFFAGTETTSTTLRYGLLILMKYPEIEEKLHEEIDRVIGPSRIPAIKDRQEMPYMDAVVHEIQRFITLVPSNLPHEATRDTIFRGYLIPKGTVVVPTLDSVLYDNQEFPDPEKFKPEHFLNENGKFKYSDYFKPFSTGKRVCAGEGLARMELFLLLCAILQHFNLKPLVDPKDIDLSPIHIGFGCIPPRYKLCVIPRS

Sequence of human liver microsomal cytochrome P450 2E1 (CYP2E1) (P05181 whole entry): as above
T1 sequence (P05181 whole entry): as above

SMILES	inhibition at 30 min, 16.5 µM (CYP2E1 [1]) [%]	inhibition at 30 min, 33 µM (CYP2E1 [1]) [%]	inhibition at 30 min, 66 µM (CYP2E1 [1]) [%]	also measured
O=c1c(O[C@@H]2O[C@H](CO)[C@H](O)[C@H](O)[C@H]2O)c(-c2ccc(O)c(O)c2)oc2cc(O)cc(O)c12 [Hyperoside]	-24.2 ± 1.19	35.6 ± 3.68	53.5 ± 1.2	–
O=C(O[C@@H]1Cc2c(O)cc(O)cc2O[C@@H]1c1cc(O)c(O)c(O)c1)c1cc(O)c(O)c(O)c1 [(−)-Epigallocetechin-3-gallate]	–	–	–	Inhibition of CYP 2E1 (%) ([2]; tested concentration 16.5 μM): 50.19 ± 1.89%; Inhibition of CYP 2E1 (%) ([2]; tested concentration 33 μM): 60.53 ± 2.06%; Inhibition of CYP 2E1 (%) ([2]; tested concentration 66 μM): 72.16 ± 1.02%
O=c1c(-c2ccc(O)cc2)coc2cc(O)cc(O)c12 [Genistein]	43.9 ± 2.06	30.9 ± 1.62	36.9 ± 1.56	–
C[C@@H]1O[C@@H](OC[C@H]2O[C@@H](Oc3c(-c4ccc(O)c(O)c4)oc4cc(O)cc(O)c4c3=O)[C@H](O)[C@@H](O)[C@@H]2O)[C@H](O)[C@H](O)[C@H]1O [Rutin]	30 ± 0.81	30.1 ± 1.62	43.5 ± 3.09	–
C[C@@H]1O[C@@H](Oc2c(-c3ccc(O)c(O)c3)oc3cc(O)cc(O)c3c2=O)[C@H](O)[C@H](O)[C@H]1O [Quercitrin]	33.5 ± 4.29	53.8 ± 3.51	61 ± 5.88	–
O=c1c(O)c(-c2ccc(O)cc2O)oc2cc(O)cc(O)c12 [Morin]	36.9 ± 1.56	52.1 ± 1.7	60.3 ± 1.56	–
O=C(O)c1cc(O)c(O)c(O)c1 [gallic acid]	10.5 ± 1.12	18.8 ± 2.03	28 ± 1.56	inhibition at 40 min, 33 µM (CYP2E1 [3]): 42.7 ± 7.36%; inhibition at 40 min, 16.5 µM (CYP2E1 [3]): 35.6 ± 10%; inhibition at 40 min, 66 µM (CYP2E1 [3]): 48.2 ± 4.2%
O=C(O)[C@H]1O[C@@H](Oc2cc3oc(-c4ccccc4)cc(=O)c3c(O)c2O)[C@H](O)[C@@H](O)[C@@H]1O [Baicalin]	22.5 ± 2.24	35.6 ± 3.09	49.3 ± 2.26	–
Oc1cc(O)c2c(c1)O[C@H](c1ccc(O)c(O)c1)[C@H](O)C2 [(−)-Epicatechin]	–	–	–	Inhibition of CYP 2E1 (%) ([4]; tested concentration 16.5 μM): 18.27 ± 9.34%; Inhibition of CYP 2E1 (%) ([4]; tested concentration 33 μM): 15.02 ± 5.50%; Inhibition of CYP 2E1 (%) ([4]; tested concentration 66 μM): 2.57 ± 11.60%
CCCCCCCCCCCCCC(=O)OCC [Ethyl Myristate]	22.1 ± 0.78	41 ± 4.76	52 ± 2.38	–
O=C(CCc1ccc(O)cc1)c1c(O)cc(O)cc1O [Phloretin]	29.6 ± 3.21	39.8 ± 3.28	50.9 ± 2.09	inhibition at 40 min, 33 µM (CYP2E1 [3]): 54.7 ± 2.84%; inhibition at 40 min, 16.5 µM (CYP2E1 [3]): 42 ± 3.63%; inhibition at 40 min, 66 µM (CYP2E1 [3]): 66.8 ± 4.79%
O=C(O)/C=C/c1ccccc1 [trans-Cinnamic acid]	–	–	–	inhibition at 40 min, 33 µM (CYP2E1 [3]): 4.66 ± 6.5%; inhibition at 40 min, 16.5 µM (CYP2E1 [3]): 5.71 ± 10.5%; inhibition at 40 min, 66 µM (CYP2E1 [3]): 7.1 ± 6.95%
O=C/C=C/c1ccccc1 [Trans-Cinnamaldehyde]	60.8 ± 3	89.6 ± 1.52	92.81 ± 0.53	–
Oc1cc(O)c2c(c1)O[C@H](c1ccc(O)c(O)c1)[C@@H](O)C2 [(+)-Catechin]	–	–	–	Inhibition of CYP 2E1 (%) ([4]; tested concentration 16.5 μM): 41.53 ± 7.62%; Inhibition of CYP 2E1 (%) ([4]; tested concentration 33 μM): 33.83 ± 8.76%; Inhibition of CYP 2E1 (%) ([4]; tested concentration 66 μM): 16.45 ± 9.67%
C=C(C)C1CC=C(C)CC1 (single isomer, unassigned; (+)) [(+)-Limonene]	–	–	–	Inhibition of CYP 2E1 (%) ([2]; tested concentration 16.5 μM): 13.77 ± 1.96%; Inhibition of CYP 2E1 (%) ([2]; tested concentration 33 μM): 38.05 ± 1.95%; Inhibition of CYP 2E1 (%) ([2]; tested concentration 66 μM): 63.64 ± 2.74%
O=c1c(-c2ccc(O)cc2)coc2cc(O)ccc12 [Daidzein]	73.5 ± 1.74	76.3 ± 2.28	86.8 ± 1.04	–
O=c1cc(-c2ccc(O)c(O)c2)oc2cc(O)cc(O)c12 [Luteolin]	39.1 ± 3.42	43.4 ± 4.74	53.2 ± 1.78	–
O=c1cc(-c2ccc(O)cc2)oc2c([C@@H]3O[C@H](CO)[C@@H](O)[C@H](O)[C@H]3O)c(O)cc(O)c12 [Vitexin]	23.1 ± 1.19	30.6 ± 0.78	38.7 ± 1.62	–
O=c1c(O)c(-c2ccc(O)cc2)oc2cc(O)cc(O)c12 [Kaempferol]	66.5 ± 1.71	74.74 ± 0.6	79.25 ± 0.27	inhibition at 40 min, 33 µM (CYP2E1 [3]): 70 ± 3.75%; inhibition at 40 min, 16.5 µM (CYP2E1 [3]): 71.9 ± 1.14%; inhibition at 40 min, 66 µM (CYP2E1 [3]): 70.6 ± 2.53%
O=c1cc(-c2ccc(O)c(O)c2)oc2cc(O[C@@H]3O[C@H](CO)[C@@H](O)[C@H](O)[C@H]3O)cc(O)c12 [Luteolin-7-Glucoside]	–	–	–	Inhibition of CYP 2E1 (%) ([2]; tested concentration 16.5 μM): 42.96 ± 5.10%; Inhibition of CYP 2E1 (%) ([2]; tested concentration 33 μM): 55.87 ± 0.67%; Inhibition of CYP 2E1 (%) ([2]; tested concentration 66 μM): 60.26 ± 1.11%
COc1cc(-c2oc3cc(O)cc(O)c3c(=O)c2O)ccc1O [Isorhamnetin]	12.1 ± 1.06	18.7 ± 1.22	36.3 ± 1.59	–
COc1ccc([C@@H]2CC(=O)c3c(O)cc(O)cc3O2)cc1O [Hesperetin]	25.7 ± 2.45	34.3 ± 2.03	44.6 ± 2.35	inhibition at 40 min, 33 µM (CYP2E1 [3]): 43.3 ± 0.82%; inhibition at 40 min, 16.5 µM (CYP2E1 [3]): 32.1 ± 5.8%; inhibition at 40 min, 66 µM (CYP2E1 [3]): 54.8 ± 1.37%
